Reference: patent US6399632B1, “Method of providing an antihistaminic effect in a hepatically impaired patient” (Merrell Pharmaceuticals Inc., priority 1992, dated 2002)

Assays:
[1] = plasma concentrations of unchanged terfenadine and acid metabolite formation in subjects; type: in vivo
[2] = to two primary metabolites; cited from earlier work
histamine H1-receptor = histamine H1-receptor (Homo sapiens, UniProt P35367); details: primary metabolites of terfenadine; cited from earlier work
[3] = system: patients with impaired hepatic function; details: recommended dose of terfenadine, or antihistaminic amount of acid metabolite
[4] = cases of hepatic impairment, preliminary information

Sequence of histamine H1-receptor (P35367 whole entry, species assumed): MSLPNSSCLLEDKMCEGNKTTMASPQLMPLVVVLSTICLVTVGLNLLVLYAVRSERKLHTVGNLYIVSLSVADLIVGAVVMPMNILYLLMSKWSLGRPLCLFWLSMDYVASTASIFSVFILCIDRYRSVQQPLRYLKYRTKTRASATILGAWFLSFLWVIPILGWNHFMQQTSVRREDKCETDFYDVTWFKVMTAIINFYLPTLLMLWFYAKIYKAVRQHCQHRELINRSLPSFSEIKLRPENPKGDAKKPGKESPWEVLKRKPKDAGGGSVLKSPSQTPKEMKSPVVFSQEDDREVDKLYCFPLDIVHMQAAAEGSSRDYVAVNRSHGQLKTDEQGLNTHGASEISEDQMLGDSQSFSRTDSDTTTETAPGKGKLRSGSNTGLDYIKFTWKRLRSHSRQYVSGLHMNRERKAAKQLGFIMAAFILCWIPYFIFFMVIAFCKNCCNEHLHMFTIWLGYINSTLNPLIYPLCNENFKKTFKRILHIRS

SMILES: CC(C)(C)c1ccc(C(O)CCCN2CCC(C(O)(c3ccccc3)c3ccccc3)CC2)cc1 (stereo not drawn) [Terfenadine, α-[4-(1,1-dimethylethyl)phenyl]-4-(hydroxydiphenylmethyl)-1-piperidinebutanol]
- rate of acid metabolite formation [1, 4]: decreased
- unchanged terfenadine plasma concentrations [1, 4]: significant concentrations of unchanged terfenadine can be detected
- unchanged terfenadine plasma concentrations ([1]; subjects with normal hepatic function): have not been detected
- first pass metabolism [2]: 99%

SMILES: OC(c1ccccc1)(c1ccccc1)C1CCNCC1 [dealkylated metabolite]
- activity of metabolite (antihistaminic) (histamine H1-receptor): inactive

SMILES: CC(C)(C(=O)O)c1ccc(C(O)CCCN2CCC(C(O)(c3ccccc3)c3ccccc3)CC2)cc1 (stereo not drawn) [terfenadine acid metabolite, 4-[l-hydroxy-4-[4-(hydroxydiphenylmethyl)-1-piperidinyl]butyl]-α,α-dimethyl-benzeneacetic acid]
- cardiac events of QT prolongation and/or ventricular tachycardia [3]: will not experience cardiac events of QT prolongation and/or ventricular tachycardia
